US4172143A, “2-Methoxy-benzamide derivatives” (priority 1974, dated 1979)
Counter-ions that a name gives are not always drawn. Like-named read-outs stand apart in the source and are kept apart here.

Columns and labels:
in vivo = conditions: for LD50 at 48 h: LD 50 over 48 hours
Description: The compounds were administered in the form of their hydrochlorides or of their methanesulphonates.
The acute toxicity was evaluated in Swiss CDl mice of both sexes, of average weight 20 g. The 50% lethal dose (LD 50) of each product was determined by a graphical method.

[1] = tested on: emetic effect induced by apomorphine; assay: Antagonism towards emetic effect induced by apomorphine in dogs; format: in vivo; conditions: Canis lupus familiaris, emesis induced by apomorphine, read-out: Antiemetic activity in dogs, AD 50
Excerpt: Some compounds have also antiemetic activity which was studied with the following test:
(4) Antagonism towards emetic effect induced by apomorphine in dogs (Shallek et al, Arch. Int. Pharmacodyn. 174 (1968) N°. 2, 350-372. Boissier et al, Med. Exp. 6 (1962), 320-326). The results are expressed in active doses 50% (AD 50) and set in Table IX.

[2] = tested on: stereotypies induced by apomorphine; assay: Antagonism towards stereotypies induced by apomorphine in rats (method of Janssen); format: in vivo, male Sprague-Dawley (Charles River) rats; conditions: for ED50: Rattus norvegicus, read-out: Antagonism to stereotypies induced by apomorphine in rats, AD 50; for Antagonism to stereotypies induced by apomorphine in rats, AD 50: oral; for antagonism to stereotypies induced in rats by apomorphine: oral administration
Excerpt: (1) Antagonism towards stereotypies induced by apomorphine in male Sprague-Dawley (Charles River) rats of average weight 130 g, in accordance with the method of Janssen and colleagues (Arzneim. Forsch. 1960, 10, 1003).
(§1) In these two tests, the results are expressed by the 50% active doses (AD 50).

[3] = Catalepsy-inducing effect in rats (method of Tedeschi); format: in vivo, male Sprague-Dawley (Charles River) rats; conditions: for TD50: rat, in vivo, ip
Excerpt: (2) Catalepsy-inducing effect in rats of the same species and of the same weight, in accordance with the method of Tedeschi and colleagues (Arch. Intern. Pharmacodyn. 1959, 122, 129).
as §1

[4] = Protection against a stress due to an environment and new feedstuffs (method of Stephens); format: in vivo, mice; conditions: dose producing 40% increase in feedstuff taken, * no activity was observed up to this dose; for ED40: Mus musculus, po, read-out: Protection against stress in mice, AD 40
Description: (3) Protection against a stress due to an environment and due to new feedstuffs, in male […] (CDl strain, weight about 20 g) in accordance with the method of Stephens (Brit. J. Pharmacol. 1973, 49, 146 P.). The doses (AD 40) which produce a 40% increase in the feedstuff taken were determined.

[5] = Neuro-pharmacological tests (overall conclusion); format: in vivo
Excerpt: The neuro-pharmacological activity was studied with the aid of the following three tests: […]

[6] = mouse, in vivo, ip, intraperitoneal, mice
[7] = ip, intraperitoneal, results for hydrochlorides given in weight of base
[8] = po, hydrochlorides in weight of base, * = no activity was observed up to this dose
[9] = hydrochlorides in weight of base, * = no activity was observed up to this dose

Compound: COc1ccc(S(N)(=O)=O)cc1C(=O)NCC1CCCN1CC1CC1 (racemic) [SL-C.036 (racemic) (cl), N-[(1-cyclopropylmethyl-pyrrolidinyl-2)-methyl]-2-methoxy-5-sulphamoyl-benzamide]
- LD50 at 48 h (in vivo; [6]): 400 mg/kg
- ED50 [1]: 0.037 mg/kg
- ED50 [2, 7]: 15 mg/kg

Compound: COc1ccc(S(N)(=O)=O)cc1C(=O)NCC1CCCN1Cc1ccc(F)cc1 (racemic) [SL-C.205 (racemic) (cl), N-[(1-p-fluorobenzyl-pyrrolidinyl-2)-methyl]-2-methoxy-5-sulphamoyl-benzamide]
- TD50 [3]: > 480 mg/kg
- LD50 at 48 h (in vivo; [6]): 750 mg/kg
- LD50 at 168 h (in vivo; mouse, in vivo, po, LD 50, oral, mice, 7 days): 3000 mg/kg
- ED50 [2, 7]: 30 mg/kg
- ED50 [2, 8]: 85 mg/kg

Compound: COc1ccc(S(N)(=O)=O)cc1C(=O)NCC1CCCN1Cc1ccc(F)cc1 (racemic) [SL-C.205 (racemic) (ms), N-[(1-p-fluorobenzyl-pyrrolidinyl-2)-methyl]-2-methoxy-5-sulphamoyl-benzamide]
- ED40 [4]: 60 mg/kg
- LD50 at 48 h (in vivo; mouse, in vivo, iv, mice): 190 mg/kg
- Antagonism to stereotypies induced by apomorphine in rats, AD 50 ([2]; hydrochlorides in weight of base, * = no activity was observed up to this dose, racemic (ms)): 75 mg/kg

Compound: COc1ccc(S(N)(=O)=O)cc1C(=O)NCC1CCCN1Cc1ccc(F)cc1 (single isomer, unassigned) [SL-C.205 1 (ms), N-[(1-p-fluorobenzyl-pyrrolidinyl-2)-methyl]-2-methoxy-5-sulphamoyl-benzamide]
- activity in neuro-pharmacological tests ([5]; in vivo): practically inactive
- ED40 [4]: > 30 mg/kg
- LD50 at 48 h (in vivo; mouse, in vivo, iv, mice): 160 mg/kg
- Antagonism to stereotypies induced by apomorphine in rats, AD 50 [2, 9]: > 150 mg/kg

Compound: COc1ccc(S(N)(=O)=O)cc1C(=O)NCC1CCCN1Cc1ccc(F)cc1 (single isomer, unassigned) [SL-C.205 d (ms), N-[(1-p-fluorobenzyl-pyrrolidinyl-2)-methyl]-2-methoxy-5-sulphamoyl-benzamide]
- activity relative to the racemic compound ([5]; depending on the chosen method of evaluation): 1.5 times or twice
- Protection against stress in mice, AD 40 ([4]; oral): 30 mg/kg
- LD 50 over 48 hours (in vivo; mouse, in vivo, iv): 160 mg/kg
- Antagonism to stereotypies induced by apomorphine in rats, AD 50 [2, 9]: 50 mg/kg

Compound: COc1ccc(S(N)(=O)=O)cc1C(=O)NCC1CCCN1C(C)c1ccccc1 (single isomer, unassigned) [SL-D.222 (cl), 1(-)-N-[(1-α-methylbenzyl-pyrrolidinyl-2-)-methyl]-2-methoxy-5-sulphamoyl-benzamide]
- LD50 at 48 h (in vivo; [6]): 625 mg/kg

Compound: COc1ccc(S(N)(=O)=O)cc1C(=O)NCC1CCCN1C(C)c1ccccc1 (single isomer, unassigned) [SL-D.223 (cl)]
- LD 50 over 48 hours (in vivo; mouse, in vivo, ip, 2880 min): 650 mg/kg

Compound: COc1ccc(S(N)(=O)=O)cc1C(=O)NC[C@@H]1CCCN1CC1CCCCC1 [77 205 (S) (+) (ms)]
- ED50 [1]: 0.014 mg/kg

Compound: COc1ccc(S(N)(=O)=O)cc1C(=O)NC[C@@H]1CCCN1CC1CC1 [77.075 (S) (+) (ms), N-[(1-cyclopropylmethyl-pyrrolidinyl-2)-methyl]-2-methoxy-5-sulphamoyl-benzamide]
- LD50 at 48 h (in vivo; [6]): 350 mg/kg
- ED50 [2, 7]: 4 mg/kg

Compound: COc1ccc(S(=O)(=O)N(C)C)cc1C(=O)NCC1CCCN1CC1CC1 (stereo not shown) [77.149]
- LD50 at 48 h (in vivo; [6]): 240 mg/kg
- ED50 [1]: 0.04 mg/kg
- ED50 [2, 7]: 3 mg/kg

Compound: COc1ccc(S(C)(=O)=O)cc1C(=O)NCC1CCCN1CC1CC1 (stereo not shown) [77.173]
- LD50 at 48 h (in vivo; [6]): 235 mg/kg
- ED50 [2, 7]: 1.5 mg/kg

Compound: COc1ccc(S(N)(=O)=O)cc1C(=O)NCC1CCCN1CC1CCCCC1 (stereo not shown) [77.205]
- LD50 at 48 h (in vivo; [6]): 360 mg/kg
- ED50 [2, 7]: 8 mg/kg

Compound: CCS(=O)(=O)c1ccc(OC)c(C(=O)NCC2CCCN2CC2CC2)c1 (stereo not shown) [77.206]
- LD50 at 48 h (in vivo; [6]): 310 mg/kg
- ED50 [2, 7]: 3 mg/kg

Compound: COc1ccc(S(N)(=O)=O)cc1C(=O)NCC1CCCN1Cc1cccc(Cl)c1 (stereo not shown) [SL-C.193 (cl)]
- TD50 [3]: > 300 mg/kg

Compound: COc1ccc(S(N)(=O)=O)cc1C(=O)NCC1CCCN1Cc1ccc(F)cc1 (stereo not shown) [SL-C.205, N-[(1-p-fluorobenzyl-pyrrolidinyl-2)-methyl]-2-methoxy-5-sulphamoyl-benzamide]
- induction of catalepsy ([3]; up to high doses): does not induce catalepsy up to high doses
- activity compared with Sulpiride ([5]; than Sulpiride): markedly more active
- toxicity compared with Sulpiride (in vivo; than Sulpiride): much less toxic
- antagonism to stereotypies induced in rats by apomorphine [2]: powerful antagonistic agent

Compound: C#CCN1CCCC1CNC(=O)c1cc(S(N)(=O)=O)ccc1OC (stereo not shown) [SL-C.299 (cl)]
- TD50 [3]: > 150 mg/kg
- LD50 at 48 h (in vivo; [6]): 170 mg/kg
- ED50 [2, 7]: 80 mg/kg

Compound: COc1ccc(S(N)(=O)=O)cc1C(=O)NCC1CCCN1C(c1ccccc1)c1ccccc1 (stereo not shown) [SL-D.090 (cl)]
- LD50 at 48 h (in vivo; [6]): > 1500 mg/kg

Compound: COc1ccc(S(C)(=O)=O)cc1C(=O)NCC1CCCN1Cc1ccc(F)cc1 (stereo not shown) [SL-D.163 (cl)]
- LD50 at 48 h (in vivo; [6]): 400 mg/kg
- ED50 [2, 7]: 3 mg/kg

Compound: COc1ccc(Cl)cc1C(=O)NCC1CCCN1Cc1ccc(F)cc1 (stereo not shown) [SL-D.165 (cl), N-[(1-p-fluorobenzyl-pyrrolidinyl-2)-methyl]-2-methoxy-5-chloro-benzamide]
- ED40 [4]: 30 mg/kg
- LD50 at 48 h (in vivo; [6]): 275 mg/kg
- ED50 [2, 7]: 1.5 mg/kg

Compound: COc1ccc(S(N)(=O)=O)cc1C(=O)NCC1CCCN1Cc1ccccc1F (stereo not shown) [SL-D.192 (cl)]
- ED40 [4]: 30 mg/kg
- LD50 at 48 h (in vivo; [6]): > 2000 mg/kg

Compound: COc1ccc(S(N)(=O)=O)cc1C(=O)NCC1CCCN1Cc1cccc(F)c1 (stereo not shown) [SL-D.193 (cl), N-[(1-m-fluorobenzyl-pyrrolidinyl-2)-methyl]-2-methoxy-5-sulphamoyl-benzamide]
- ED40 [4]: 30 mg/kg
- LD50 at 48 h (in vivo; [6]): > 2000 mg/kg
- ED50 [2, 7]: 150 mg/kg

Compound: COc1ccc(S(N)(=O)=O)cc1C(=O)NCC1CCCN1CC=Cc1ccc(F)cc1 (stereo not shown) [SL-D.194 (cl)]
- LD50 at 48 h (in vivo; [6]): > 2000 mg/kg

Compound: COc1ccc(S(N)(=O)=O)cc1C(=O)NCC1CCCN1CCC#N (stereo not shown) [Sl-C.262 (cl), N-[1-(2-cyanoethyl)-pyrrolidinyl-2-methyl]-2-methoxy-5-sulphamoyl-benzamide]
- LD50 at 48 h (in vivo; [6]): > 2000 mg/kg

Compound: CCN1CCCC1CNC(=O)c1cc(S(N)(=O)=O)ccc1OC (stereo not shown) [Sulpiride (cl), N-[(1-ethylpyrrolidinyl-2)-methyl]-2-methoxy-5-sulphamoyl-benzamide hydrochloride, reference compound]
- TD50 [3]: > 100 mg/kg
- ED50 [2, 7]: 60 mg/kg
- ED50 [2, 8]: > 600 mg/kg
- antagonism to stereotypies induced in rats by apomorphine [2]: inactive
